Test results reported in patent US20260355097A1, “MICROBIOME FRIENDLY SUBSTANCES AND MICROBIOME FRIENDLY COSMETIC FORMULATIONS” (BASF SE, priority 2023, published 2026).
Counter-ions that a name gives are not always drawn.

System: Staphylococcus aureus, Staphylococcus epidermidis, Malassezia furfur
Assay: Lowest MIC over the microorganisms tested
Format: cell-based
Settings: lowest MIC value obtained over the tested microorganisms
Protocol: Minimal Inhibitory Concentration tests are tests typically used to measure growth inhibition by a substance. MICs are defined as the lowest test concentrations of the test substance at which growth of specific microorganisms are inhibited.
In the present case predefined dilutions of the test substance in the appropriate culture medium were prepared and inoculated with the microorganism of interest. After incubation, the test organisms were cultured over a time-period and under conditions normally allowing growth of the microorganism. Vehicle controls (vehicle=solvent used, e. g. water) were also assessed to determine growth without the test substance. The organisms of interest tested were the representative strains S. aureus (found on the skin, often a pathogen), S. epidermidis and Malassezia furfur. The higher the MIC value, the less inhibition of growth is observed. In the following results the test concentrations are given as percent of active substance content.
For each substance the lowest MIC value obtained determines whether this substance in useful as microbiome friendly cosmetic ingredient. A substance is useful as microbiome friendly cosmetic ingredient, if this lowest MIC is not lower than a threshold value. This threshold value depends on the type of the substance (solubilizer, emulsifier etc.) and is related to the amount in which these types of substances are generally used in common cosmetic formulations.

OCCCCO [1.4 Butandiol, 1,4 Butandiol]
lowest MIC: >1 % by weight

CC(O)CCO (stereo not drawn) [Butylene Glycol, 1,3-Butanediol]
lowest MIC: 20.00 % by weight

OCC(O)CO [Glycerin]
lowest MIC: 20.00 % by weight

CCCCCCCC/C=C\CCCCCCCC(=O)OCC(O)CO (stereo not drawn) [Glyceryl Oleate]
lowest MIC: >2 % by weight

CCCCCCCCCCCCCCCCCC(=O)OCC(O)CO.O=C(O)CC(O)(CC(=O)O)C(=O)O (stereo not drawn) [Glyceryl Stearate Citrate]
lowest MIC: >3 % by weight

CCCCCCCCCCCCCCCCOP(=O)([O-])[O-].[K+].[K+] [Potassium Cetyl Phosphate]
lowest MIC: 1.00 % by weight

O=C(O)c1ccccc1 [Sodium Benzoate]
lowest MIC: 0.25 % by weight

CCOC(=O)CC(O)(CC(=O)OCC)C(=O)OCC [Triethyl Citrate]
lowest MIC: 1 % by weight

CCCCC/C=C\C/C=C\CCCCCCCC(=O)OCC [ethyl linoleate]
lowest MIC: >1 % by weight

Conjugated Linoleic Acid
lowest MIC: >1 % by weight

Disodium Cetearyl Sulfosuccinate
lowest MIC: 0.05 % by weight

Sodium Cetearyl Sulfate
lowest MIC: 0.08 % by weight
